Results taken from patent US9546160B2, “Hepatitis C virus inhibitors” (Bristol-Myers Squibb Company, priority 2011, dated 2017).
Like-named read-outs stand apart in the source and are kept apart here.

System: HCV 1b genotype
Assay: HCV Replicon assay
Assay type: cell-based
Conditions: HCV 1b genotype replicon
Method: An HCV Replicon assay was utilized in the present disclosure, and was prepared, conducted and validated as described in commonly owned PCT/US2006/022197 and in O'Boyle et. al. Antimicrob Agents Chemother. 2005 Apr; 49(4):1346-53. Assay methods incorporating luciferase reporters have also been used as described (Apath.com).
HCV-neo replicon cells and replicon cells containing resistance substitutions in the NS5A region were used to test the currently described family of compounds.

[1] = read-out: Range (EC50 ranges against HCV 1b)
[2] = Hepatitis C virus, read-out: 1b (μM) EC50 (Effective 50% inhibitory concentration)
[3] = Hepatitis C virus, read-out: Range (EC50 ranges against HCV 1b)

Compound: COC(=O)NC(C(=O)N1[C@@H](C)CC[C@H]1c1ncc(-c2ccc(-c3ccc(-c4cnc([C@@H]5CC[C@H](C)N5C(=O)C(NC(=O)OC)C5CCOC6(CCC6)C5)[nH]4)cc3)cc2)[nH]1)C1CCOC2(CCC2)C1 (single isomer, unassigned) [Example 2.1]
- EC50 [1]: 900 to 140000 pM

Compound: COC(=O)NC(C(=O)N1[C@@H](C)CC[C@H]1c1ncc(-c2ccc(-c3ccc(-c4cnc([C@@H]5CC[C@H](C)N5C(=O)C(NC(=O)OC)C5CCOC6(CCC6)C5)[nH]4)cc3)cc2)[nH]1)C1CCOC2(CCC2)C1 (single isomer, unassigned) [Example 2.2]
- EC50 [1]: 900 to 140000 pM

Compound: COC(=O)NC(C(=O)N1[C@@H](C)CC[C@H]1c1ncc(-c2ccc(-c3ccc(-c4cnc([C@@H]5CC[C@H](C)N5C(=O)C(NC(=O)OC)C5CCOC6(CCCC6)C5)[nH]4)cc3)cc2)[nH]1)C1CCOC2(CCCC2)C1 (single isomer, unassigned) [Example 3.1]
- EC50 [1]: 900 to 140000 pM

Compound: COC(=O)NC(C(=O)N1[C@@H](C)CC[C@H]1c1ncc(-c2ccc(-c3ccc(-c4cnc([C@@H]5CC[C@H](C)N5C(=O)C(NC(=O)OC)C5CCOC6(CCCC6)C5)[nH]4)cc3)cc2)[nH]1)C1CCOC2(CCCC2)C1 (single isomer, unassigned) [Example 3.2]
- EC50 [1]: 900 to 140000 pM

Compound: COC(=O)NC(C(=O)N1[C@@H]2C[C@@H]2C[C@H]1c1nc(-c2ccc(-c3ccc(-c4c[nH]c([C@@H]5C[C@H]6C[C@H]6N5C(=O)C(NC(=O)OC)[C@@H]5C[C@@H]6[C@H](C5)C6(F)F)n4)cc3)cc2)c[nH]1)[C@@H]1C[C@@H]2[C@H](C1)C2(F)F (single isomer, unassigned) [QC1.2]
- EC50 [2]: 4.9 pM

Compound: COC(=O)NC(C(=O)N1[C@@H]2C[C@@H]2C[C@H]1c1nc(-c2ccc(-c3ccc(-c4c[nH]c([C@@H]5C[C@H]6C[C@H]6N5C(=O)C(NC(=O)OC)[C@@H]5C[C@@H]6[C@H](C5)C6(F)F)n4)cc3)cc2)c[nH]1)[C@@H]1C[C@@H]2[C@H](C1)C2(F)F (single isomer, unassigned) [QC1.3]
- EC50 [3]: 100 to 900 pM

Compound: COC(=O)NC(C(=O)N1[C@@H]2C[C@@H]2C[C@H]1c1nc(-c2ccc(-c3ccc(-c4c[nH]c([C@@H]5C[C@H]6C[C@H]6N5C(=O)C(NC(=O)OC)[C@H]5C[C@@H]6C[C@@H]6C5)n4)cc3)cc2)c[nH]1)[C@H]1C[C@@H]2C[C@@H]2C1 (single isomer, unassigned) [QC5.3]
- EC50 [2]: 5.55 pM
- EC50 [3]: 5.01 to 100 pM

Compound: COC(=O)NC(C(=O)N1[C@@H](C)CC[C@H]1c1nc(-c2ccc(-c3ccc(-c4c[nH]c([C@@H]5CC[C@H](C)N5C(=O)C(NC(=O)OC)C5CCC6(CC6)OC5)n4)cc3)cc2)c[nH]1)C1CCC2(CC2)OC1 (some centres unmarked) [Example 1.1]
- EC50 [3]: 5.01 to 100 pM

Compound: COC(=O)NC(C(=O)N1[C@@H](C)CC[C@H]1c1nc(-c2ccc(-c3ccc(-c4c[nH]c([C@@H]5CC[C@H](C)N5C(=O)C(NC(=O)OC)C5CCC6(CC6)OC5)n4)cc3)cc2)c[nH]1)C1CCC2(CC2)OC1 (some centres unmarked) [Example 1.2]
- EC50 [1]: 5.01 to 100 pM

Compound: COC(=O)NC(C(=O)N1[C@@H](C)CC[C@H]1c1ncc(-c2ccc(-c3ccc(-c4cnc([C@@H]5CC[C@H](C)N5C(=O)C(NC(=O)OC)C5CC6(CC6)C5)[nH]4)cc3)cc2)[nH]1)C1CC2(CC2)C1 (some centres unmarked) [Example 5.2]
- EC50 [3]: 900 to 140000 pM

Compound: COC(=O)N[C@H](C(=O)C1[C@@H](CF)CC[C@H]1c1ncc(-c2ccc(-c3ccc(-c4cnc([C@@H]5CC[C@H](CF)N5C(=O)[C@@H](NC(=O)OC)[C@H]5CCOC6(CC6)C5)[nH]4)cc3)cc2)[nH]1)[C@H]1CCOC2(CC2)C1 (some centres unmarked) [Example 8]
- EC50 [3]: 5.01 to 100 pM

Compound: COC(=O)NC(C(=O)N1CCC[C@H]1c1nc(-c2ccc(-c3c[nH]c([C@@H]4CCCN4C(=O)C(NC(=O)OC)C4CCOC5(CC5)C4)n3)cc2)c[nH]1)C1CCOC2(CC2)C1 (stereo partly drawn) [Example QC14, dimethyl (benzene-1,4-diylbis(1H-imidazole-4,2-diyl(2S)pyrrolidine-2,1-diyl(1-(4-oxaspiro[2.5]oct-7-yl)-2-oxoethane-2,1-diyl)))biscarbamate]
- EC50 [3]: 900 to 140000 pM

Compound: COC(=O)NC(C(=O)N1[C@@H]2C[C@@H]2C[C@H]1c1nc(-c2ccc(-c3ccc(-c4c[nH]c([C@@H]5C[C@H]6C[C@H]6N5C(=O)C(NC(=O)OC)[C@H]5C[C@@H]6[C@H](C5)C6(F)F)n4)cc3)cc2)c[nH]1)[C@H]1C[C@@H]2[C@H](C1)C2(F)F (stereo partly drawn) [QC2.2, dimethyl (4,4′-biphenyldiylbis(1H-imidazole-4,2-diyl(1R,3S,5R)-2-azabicyclo[3.1.0]hexane-3,2-diyl(1-((1R,3r,5S)-6,6-difluorobicyclo[3.1.0]hex-3-yl)-2-oxo-2,1-ethanediyl)))biscarbamate]
- EC50 [1]: 5.01 to 100 pM

Compound: COC(=O)NC(C(=O)N1[C@@H]2C[C@@H]2C[C@H]1c1nc(-c2ccc(-c3ccc(-c4c[nH]c([C@@H]5C[C@H]6C[C@H]6N5C(=O)C(NC(=O)OC)[C@H]5C[C@@H]6[C@H](C5)C6(F)F)n4)cc3)cc2)c[nH]1)[C@H]1C[C@@H]2[C@H](C1)C2(F)F (stereo partly drawn) [QC2.3, dimethyl (4,4′-biphenyldiylbis(1H-imidazole-4,2-diyl(1R,3S,5R)-2-azabicyclo[3.1.0]hexane-3,2-diyl(1-((1R,3r,5S)-6,6-difluorobicyclo[3.1.0]hex-3-yl)-2-oxo-2,1-ethanediyl)))biscarbamate]
- EC50 (read-out: 1b (μM) EC50 (Effective 50% inhibitory concentration)): 1080 pM
- EC50 [1]: 900 to 140000 pM

Compound: COC(=O)NC(C(=O)N1[C@@H]2C[C@@H]2C[C@H]1c1nc(-c2ccc(-c3ccc(-c4c[nH]c([C@@H]5C[C@H]6C[C@H]6N5C(=O)C(NC(=O)OC)[C@@H]5C[C@@H]6C[C@@H]6C5)n4)cc3)cc2)c[nH]1)[C@@H]1C[C@@H]2C[C@@H]2C1 (stereo partly drawn) [QC3.2, dimethyl (4,4′-biphenyldiylbis(1H-imidazole-4,2-diyl(1R,3S,5R)-2-azabicyclo[3.1.0]hexane-3,2-diyl(1-((1R,3r,5S)-bicyclo[3.1.0]hex-3-yl)-2-oxo-2,1-ethanediyl)))biscarbamate]
- EC50 [1]: 5.01 to 100 pM

Compound: COC(=O)NC(C(=O)N1[C@@H]2C[C@@H]2C[C@H]1c1nc(-c2ccc(-c3ccc(-c4c[nH]c([C@@H]5C[C@H]6C[C@H]6N5C(=O)C(NC(=O)OC)[C@@H]5C[C@@H]6C[C@@H]6C5)n4)cc3)cc2)c[nH]1)[C@@H]1C[C@@H]2C[C@@H]2C1 (stereo partly drawn) [QC3.3, dimethyl (4,4′-biphenyldiylbis(1H-imidazole-4,2-diyl(1R,3S,5R)-2-azabicyclo[3.1.0]hexane-3,2-diyl(1-((1R,3r,5S)-bicyclo[3.1.0]hex-3-yl)-2-oxo-2,1-ethanediyl)))biscarbamate]
- EC50 [1]: 100 to 900 pM

Compound: COC(=O)N[C@@H](C(=O)N1C2C[C@@H]2C[C@H]1c1nc(-c2ccc(-c3ccc(-c4c[nH]c([C@@H]5C[C@H]6CC6N5C(=O)[C@H](NC(=O)OC)C5[C@H]6COC[C@@H]56)n4)cc3)cc2)c[nH]1)C1[C@H]2COC[C@@H]12 (stereo partly drawn) [QC4.1, dimethyl (4,4′-biphenyldiylbis(1H-imidazole-4,2-diyl(1R,3S,5R)-2-azabicyclo[3.1.0]hexane-3,2-diyl(1-((1R,5S,6s)-3-oxabicyclo[3.1.0]hex-6-yl)-2-oxo-2,1-ethanediyl)))biscarbamate]
- EC50 [1]: 5.01 to 100 pM

Compound: COC(=O)N[C@@H](C(=O)N1C2C[C@@H]2C[C@H]1c1nc(-c2ccc(-c3ccc(-c4c[nH]c([C@@H]5C[C@H]6CC6N5C(=O)[C@H](NC(=O)OC)C5[C@H]6COC[C@@H]56)n4)cc3)cc2)c[nH]1)C1[C@H]2COC[C@@H]12 (stereo partly drawn) [QC4.2, dimethyl (4,4′-biphenyldiylbis(1H-imidazole-4,2-diyl(1R,3S,5R)-2-azabicyclo[3.1.0]hexane-3,2-diyl(1-((1R,5S,6s)-3-oxabicyclo[3.1.0]hex-6-yl)-2-oxo-2,1-ethanediyl)))biscarbamate]
- EC50 [1]: 100 to 900 pM
